Source: PubChem BioAssay AID179 (DTP/NCI, 2004)
The source made the active and inactive calls.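 How the source made its calls: active means compounds giving half or more protection of infected cells from virus-caused growth loss, again on retest; inactive means the rest.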

System: CEM cells HIV-1 protection, formazan growth assay
Assay: NCI AIDS Antiviral Assay
Conditions: for IC50: measured here: growth of uninfected CEM cells
Procedure, shortened: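 Five concentrations of each compound were applied to infected and uninfected human CEM cells. Protection from HIV-1 was judged from growth measured with a soluble formazan assay.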

SMILES	EC50	IC50	outcome
Cc1cn(CCCCCOC(=O)NC(CCCNC(N)=O)C(=O)O)c(=O)[nH]c1=O (configuration not stated)	> 200 µM	> 200 µM	
CN(c1ccccc1)S(=O)(=O)c1ccc([N+](=O)[O-])cc1	> 200 µM	110 µM	
COc1ccc2[nH]c(=O)c(C(C)=O)c(O)c2c1	> 200 µM	> 200 µM	
O=C1CCc2cc3c(cc21)C(C(=O)O)CC3 (configuration not stated)	> 200 µM	> 200 µM	
CC(C)(C)C(=O)OCOP(=O)(OCOC(=O)C(C)(C)C)OCC1CCC(n2ccc(=O)[nH]c2=O)O1 (configuration not stated)	3.39 µM	72.4 µM	
COc1cc(C(=C2SCCS2)c2nccc3cc(OC)c(OC)cc23)c([N+](=O)[O-])cc1OC			inactive
COC(=O)/C=C/N1CC1	> 200 µM	> 200 µM	
O=C(c1ccccc1)c1oc2ccc(Br)cc2c1-c1cnn(-c2ccccc2)c1			inactive
CCCCCC=C(c1cc(Cl)c(OC)c(C(=O)N(C)C)c1)c1cc(Cl)c(OC)c(C(=O)N(C)C)c1	> 36.3 µM	21.4 µM	
COc1ccc(P2(=S)OCCOP(=S)(c3ccc(OC)cc3)S2)cc1 (configuration not stated)	> 117 µM	3.98 µM	
O=c1[nH]c(=O)n(COCc2ccccc2)c2ccsc12			inactive
O=C(O)c1cc2cccc(O)c2cc1O	> 200 µM	> 200 µM	
CCSC1=N/C(=C\c2ccco2)C(=O)N1	> 200 µM	> 200 µM	
COc1ccc(-c2sc(/N=C/c3ccc(N(C)CCC#N)cc3)c(C#N)c2C)cc1OC	> 501 µM	339 µM	
CCC1=NC(C(F)(F)F)(C(F)(F)F)N=C(/N=C(/N)N(C)C(C(C)C)P(=O)(OC(C)C)OC(C)C)O1 (configuration not stated)	> 200 µM	> 200 µM	
S=C1NC(c2cccs2)N2C(=S)NC(c3cccs3)N12 (configuration not stated)	> 200 µM	> 200 µM	
Cc1ccc2c(c1)C(c1ccccc1)C1COC(=O)C1O2 (configuration not stated)	> 93.3 µM	5.25 µM	
Fc1ccc(-c2sc(-c3cccs3)cc2Cc2cccs2)cc1			inactive
CC1N=C(SCc2c(F)cccc2Cl)N2C(C)N=C(SCc3c(F)cccc3Cl)N12 (configuration not stated)	> 20.4 µM	> 20.4 µM	
CCOC(=O)c1cc(C(=O)c2ccccc2)n2nc(-c3ccc(Cl)cc3)ccc12	> 50.1 µM	> 50.1 µM	
CC(=O)OC1CN2CCC1CC2 (configuration not stated)	> 200 µM	> 200 µM	
CCOP(=O)(OCC)C1CC(n2cc(C)c(=O)[nH]c2=O)OC1CO (configuration not stated)	> 200 µM	182 µM	
O=c1[nH]c(=O)ss1	> 105 µM	> 100 µM	

SMILES	EC50	IC50	outcome
NC1=NCc2c(sc3c2CCCC3)N1	> 200 µM	18.6 µM	
Cc1cc(CSc2ssc(=S)c2-c2ccccc2)c(CSc2ssc(=S)c2-c2ccccc2)cc1C	> 200 µM	> 200 µM	
CC1CN=C(NS(=O)(=O)c2cc(C(=O)Nc3ccccc3)c(Cl)cc2S)NN1 (configuration not stated)	> 200 µM	19.1 µM	
CN(C)c1ccc(/C=C(\C#N)c2ccc([N+](=O)[O-])cc2)c(Cl)c1	> 100 µM	75.9 µM	
COC(CN1CCOCCOCCOCC1)CN1CCOCCOCCOCC1	> 2510 µM	> 2510 µM	
CCCC(=O)c1c(NOC2OCC(OC(C)=O)C(OC(C)=O)C2OC(C)=O)nc(OC)n(C)c1=O (configuration not stated)	> 14.5 µM	> 14.5 µM	
NC(=Nc1c([N+](=O)[O-])cnc2ccccc12)N1CCOCC1	> 200 µM	126 µM	
OCC1OC(n2cnc3c(Cl)ncnc32)C(O)C1O (configuration not stated)			inactive
Clc1nc(Cl)nc(N2CCCc3ccccc32)n1	> 200 µM	3.89 µM	
CN(CCN(C)CC(=O)O)CC(=O)O	> 617 µM	550 µM	
NC(=O)CNC(=O)c1ccc([As](=O)(O)O)cc1	> 200 µM	> 200 µM	
O=C(/C=C/c1ccc(O)c(O)c1)OCc1ccccc1	> 12 µM	11.2 µM	
COC1/C=C/OC2(C)Oc3c(C)c(O)c4c(O)c(c(/C=N/N5CCCN(C)CC5)c(O)c4c3C2=O)NC(=O)/C(C)=C\C=C\C(C)C(O)C(C)C(O)C(C)C(OC(C)=O)C1C (configuration not stated)	> 200 µM	89.1 µM	
CC(=O)OCC1OC(N2C(S)=C(C#N)C(c3ccco3)C(C(C)=O)=C2c2ccccc2)C(OC(C)=O)C(OC(C)=O)C1OC(C)=O (configuration not stated)	95.5 µM	> 200 µM	
COC=C1C(=O)OC(C)(C)OC1=O	28.8 µM	107 µM	
Nc1nc2c(-c3ccc([N+](=O)[O-])cc3)nnn2c2ccccc12	> 4.68 µM	> 4.68 µM	
CN1CN(c2ccccc2)C2(CCN(CCCSc3ccccc3NC(=O)/C=C/c3ccccc3)CC2)C1=O	> 200 µM	3.31 µM	
CCOC(=O)CC(=O)ON(C)C(=O)Cc1ccccc1	> 251 µM	> 251 µM	
COC1=CC(=O)C=C(OC)C1=O	> 214 µM	1.12 µM	
CC1(C)OCC(C2OC(N3O[C@H](CI)C[C@@H]3c3ccccc3)C3OC(C)(C)OC23)O1 (some centres not stated)	138 µM	> 200 µM	
Cc1cn([C@H]2C[C@@H]3[C@@H](COC(C)(C[Se]c4ccccc4)N3O)O2)c(=O)[nH]c1=O (some centres not stated)	50.1 µM	162 µM	
CC(=O)NC(CCCN)C(=O)NCc1ccccc1 (configuration not stated)	> 955 µM	> 955 µM	
Cc1c(CCOC=O)c(=O)[nH]c2nncn12	14.1 µM	> 200 µM	

SMILES	EC50	IC50	outcome
[Cl][Tb]([Cl])[Cl]			inactive
COc1ccccc1-n1c(NN)nc2ccc(Br)cc2c1=O	> 138 µM	30.9 µM	
CCOC(=O)c1s/c(=N\Nc2nc3ccccc3cc2C2OCCO2)n(Cc2ccccc2)c1C	> 5.5 µM	> 5.5 µM	
CCOC(=O)C1(C(=O)OCC)C(C(C)(C)C)=C(C)c2ccccc21	> 50.1 µM	20.4 µM	
CCCCOC1NC(=O)NC(=O)C1(F)C(=O)OCC (configuration not stated)	> 200 µM	6.61 µM	
C=C1CC[C@]2(C)C3CC[C@]4(C)C(C(C)CCC(=O)O)CCC4[C@@H]3CC[C@@H]2C1 (some centres not stated)	> 5.13 µM	> 5.13 µM	
CCOC(=O)/C(C#N)=N\Nc1ccc(-n2c(C)nc3ccc(Br)cc3c2=O)cc1	> 182 µM	75.9 µM	
NC(=O)C(N/N=C(/C(=O)c1ccccc1)c1ccccc1)c1ccccc1 (configuration not stated)	> 200 µM	44.7 µM	
Cc1cccc(C(C)(C)C)c1NC(=O)C(=O)Cc1nc2ccccc2s1			inactive
CN1CN(c2ccccc2)C2(CCN(Cc3csc4ccccc34)CC2)C1=O	> 200 µM	66.1 µM	
CC(=O)C1(O)Cc2c(O)c3c(c(O)c2C(OC2CC(N)C(O)C(C)O2)C1)C(=O)c1ccccc1C3=O (configuration not stated)	> 339 µM	0.107 µM	
N.N.NC(CS)C(=O)[O-].NC(CS)C(=O)[O-].[Pt+4] (configuration not stated)	> 3310 µM	> 3310 µM	
OC12CCCCCC1(N1CCOCC1)c1ccccc12 (configuration not stated)	> 200 µM	> 200 µM	
CO/C(=N\N=C\c1ccc(Cl)c(Cl)c1)c1ccncc1	> 23.4 µM	> 23.4 µM	
Nc1nc(N)c(CCCCc2ccc([N+](=O)[O-])cc2)c(N)n1			inactive
CCOC(=O)c1cc(-c2ccc(Cl)cc2)c([N+](=O)[O-])n1C	> 200 µM	26.9 µM	
CCCCCC(=O)n1[nH]c(=O)n(-c2ccc(OC)cc2)c1=O	> 200 µM	> 200 µM	
O=C(CC1(O)C(=O)Nc2c(Cl)cc(Cl)cc21)c1ccc(Br)cc1Br (configuration not stated)	> 51.3 µM	44.7 µM	
Cc1ccc(F)cc1NC(=O)O/N=C(\Cl)C(C)C	> 20 µM	3.8 µM	
CC(N)C(=O)NC(C)C(=O)NC(C)C(=O)NC(C)C(=O)NC(C)C(=O)NC(C)C(=O)O (configuration not stated)	> 100 µM	> 100 µM	inactive
Clc1ccc(Cl)c(-c2csc(-c3cccnc3)n2)c1	> 200 µM	36.3 µM	
C1=Nc2ccccc2Cn2nncc21	> 1350 µM	21.9 µM	
O=S(=O)(c1ccccc1)C1(Sc2ccccc2)CC=CC1	> 81.3 µM	51.3 µM	

SMILES	EC50	IC50	outcome
CN1CCN(c2ccc3c(c2)NCC(=O)N3)CC1	> 200 µM	117 µM	
Cc1ccc(N=Nc2c(O)c3ccccc3[nH]c2=O)c(S(=O)(=O)N(C)C)c1	> 200 µM	> 200 µM	
O=C(OCc1ccccc1)N1N=NC2C3CC(OCc4ccccc4)(OCc4ccccc4)C(O3)C21 (configuration not stated)	> 10.7 µM	> 10.7 µM	
Cn1c(-c2ccc(Br)cc2)cc2[nH]c(=S)nc(N)c2c1=O	> 100 µM	> 100 µM	
CCCCCCCCCCCCCCCCCCSCC(COP(=O)(O)OP(=O)(O)O)OC(=O)CCCCCCCCCCCCCCC (configuration not stated)	> 0.891 µM	> 0.891 µM	
Cc1cc2c(C)cc(=O)[nH]c2cc1N	> 200 µM	> 200 µM	
O=c1oc(-c2ccccc2)cn1-c1ccccc1			inactive
CN(C)c1ccc(-c2c(C#N)c(O)n(NS(=O)(=O)c3ccccc3)c(=O)c2C#N)cc1	> 200 µM	> 200 µM	
COc1cc2cc[n+](C)c(Cc3ccc(Oc4cc(Cc5c6cc(OC)c(OC)cc6cc[n+]5C)ccc4OC)cc3)c2cc1OC			inactive
Cc1ccsc1/C=N/Nc1ccc2ccccc2n1	> 200 µM	18.6 µM	
COc1cc2c(c(OC)c1OC)C1=NNC(=O)C1(C)CC2 (configuration not stated)	> 617 µM	479 µM	
O=C(/C(=N/Nc1ccc([N+](=O)[O-])cc1)c1ccccc1)c1ccccc1			inactive
Cc1c(C(=O)Nc2ccc(Cl)cc2)nc(N)nc1-c1cccc(Cl)c1	> 174 µM	> 174 µM	
CC(=O)OCc1cc(-c2nc3ccccc3[nH]c2=O)nn1-c1ccc(Cl)cc1	> 200 µM	> 200 µM	
N#Cc1c(N2CCCCC2)[nH]c(=O)n(-c2ccccc2)c1=S	> 200 µM	> 200 µM	
CCOC(=O)C(NC(=O)CC)(Nc1ccc(S(=O)(=O)Nc2ncccn2)cc1)C(F)(F)F (configuration not stated)	> 200 µM	> 200 µM	
O=[N+]([O-])C(C(Cl)=C(Cl)Cl)=C(N1CCOCC1)N1CCOCC1	> 200 µM	123 µM	
CC(=O)Oc1ccc(/C=C/C(=O)NCCOC(=O)/C=C/c2ccc(OC(C)=O)c(OC(C)=O)c2)cc1OC(C)=O	> 100 µM	15.1 µM	
N.N.N.N.O=C([O-])C(Cl)Cl.O=C([O-])C(Cl)Cl.[Co+3].[O-][Cl+3]([O-])([O-])[O-]			inactive
O=C(O)c1ccccc1/C=N/NC1=NCCCCN1	> 200 µM	141 µM	
